Data taken from ChEMBL document CHEMBL5344409, “Discovery of pan-IAP degraders via a CRBN recruiting mechanism” (2023).
Calls of active or inactive are those of the source. The calls are words filed in the database; no cut-off is given here.

Key:
[1] = target: T1, Protein cereblon/Baculoviral IAP repeat-containing protein 3 (Homo sapiens) (UniProt Q13489+Q96SW2); experiment: PROTAC activity at CRBN/cIAP2 in human MCF7 cells assessed as induction of cIAP2 degradation at 1 uM measured after 18 hrs by western blot analysis; type: cell-based
[2] = target: T1, Protein cereblon/Baculoviral IAP repeat-containing protein 3 (Homo sapiens); experiment: PROTAC activity at CRBN/cIAP2 in human MCF7 cells assessed as induction of cIAP2 degradation at 0.1 to 10 uM measured after 18 hrs by western blot analysis; type: cell-based; details: dose 0.1-10 µM
[3] = target: T1, Protein cereblon/Baculoviral IAP repeat-containing protein 3 (Homo sapiens); experiment: PROTAC activity at CRBN/cIAP2 in human MCF7 cells at 1 uM measured after 4 hrs by TMT-labeling based LC-MS/MS analysis; type: cell-based
[4] = target: Protein cereblon/Baculoviral IAP repeat-containing protein 2 (Homo sapiens) (UniProt Q13490+Q96SW2); experiment: Binding affinity to CRBN/cIAP1 in human HEK293T cells assessed as ternary complex formation at 1 uM measured after 6 hrs by immunoprecipitation analysis; type: cell-based
[5] = target: Baculoviral IAP repeat-containing protein 2 (Homo sapiens) (UniProt Q13490); experiment: Induction of cIAP1 degradation in human MCF7 cells at 1 uM measured after 6 hrs in presence of proteasome inhibitor, MG132 by western blot analysis; type: cell-based
[6] = target: T2, Protein cereblon/E3 ubiquitin-protein ligase XIAP (Homo sapiens) (UniProt P98170+Q96SW2); experiment: PROTAC activity at CRBN/XIAP in human MCF7 cells assessed as induction of XIAP degradation at 0.1 to 10 uM measured after 18 hrs by western blot analysis; type: cell-based; details: dose 0.1-10 µM
MCF7 [7] = experiment: Induction of apoptosis in human MCF7 cells assessed as increase in PARP cleavage at 0.1 uM measured after 18 hrs by western blot analysis; type: functional, cell-based
[8] = target: T1, Protein cereblon/Baculoviral IAP repeat-containing protein 3 (Homo sapiens); experiment: PROTAC activity at CRBN/cIAP2 in human MCF7 cells assessed as induction of cIAP2 degradation at 0.1 uM measured within 1 hr by western blot analysis; type: cell-based
[9] = target: Baculoviral IAP repeat-containing protein 2 (Homo sapiens) (UniProt Q13490); experiment: Induction of cIAP1 degradation in human MCF7 cells at 0.1 to 10 uM measured after 18 hrs by western blot analysis; type: cell-based; details: dose 0.1-10 µM
[10] = target: T3, Protein cereblon-IAP (Homo sapiens) (UniProt P98170+Q13489+Q13490+Q96SW2); experiment: PROTAC activity at CRBN/IAP in human MCF7 cells assessed as inhibition of TNFalpha-induced NFkappaB activation by measuring decrease in IKKalpha/beta phosphorylation at 0.1 uM pretreated for 2 hrs followed by stimulation with TNF-alpha for 3 mins by western blot analysis; type: cell-based; details: time 123.0 min
MCF7 [11] = experiment: Induction of apoptosis in human MCF7 cells assessed as increase in total apoptotic cells at 1 uM measured after 48 hrs by AnnexinV-FITC/PI staining based flow cytometry; type: functional
MDA-MB-231 [12] = experiment: Inhibition of TNFalpha-induced cell migration in human MDA-MB-231 cells at 0.1 uM measured after 24 hrs in presence of TNFalpha by transwell assay; type: functional, cell-based
MCF7 [13] = experiment: Inhibition of TNFalpha-induced cytokine mRNA expression in human MCF7 cells assessed as decrease in TNF-alpha mRNA level by quantitative real-time PCR analysis; type: functional, cell-based
[14] = target: T2, Protein cereblon/E3 ubiquitin-protein ligase XIAP (Homo sapiens); experiment: PROTAC activity at CRBN/XIAP in human MCF7 cells assessed as induction of XIAP degradation at 0.1 uM measured within 1 hr by western blot analysis; type: cell-based
MCF7 [15] = experiment: Induction of apoptosis in human MCF7 cells assessed as increase in PARP cleavage at 1 uM measured after 6 hrs in presence of TNF-alpha by western blot analysis; type: functional, cell-based
MDA-MB-157 [16] = experiment: Inhibition of TNFalpha-induced cell migration in human MDA-MB-157 cells at 0.1 uM measured after 24 hrs in presence of TNFalpha by transwell assay; type: functional, cell-based
MCF7 [17] = experiment: Cytotoxicity against human MCF7 cells assessed as inhibition of cell growth measured after 72 hrs by CellTiter-Glo luminescent assay; type: functional
[18] = target: T1, Protein cereblon/Baculoviral IAP repeat-containing protein 3 (Homo sapiens); experiment: PROTAC activity at CRBN/cIAP2 in human MCF7 cells assessed as induction of cIAP2 degradation at 1 uM measured after 6 hrs in presence of proteasome inhibitor, MG132 by western blot analysis; type: cell-based
MCF7 [19] = experiment: Inhibition of TNFalpha-induced cytokine mRNA expression in human MCF7 cells assessed as decrease in IL-6 mRNA level by quantitative real-time PCR analysis; type: functional, cell-based
[20] = target: T3, Protein cereblon-IAP (Homo sapiens); experiment: PROTAC activity at CRBN/IAP in human MCF7 cells assessed as inhibition of TNFalpha-induced NFkappaB activation by measuring decrease in p65 phosphorylation at 0.1 uM pretreated for 2 hrs followed by stimulation with TNF-alpha for 3 mins by western blot analysis; type: cell-based; details: time 123.0 min
MCF7 [21] = experiment: Inhibition of TNFalpha-induced vimentin protein expression in human MCF7 cells by western blot analysis; type: functional, cell-based
MCF7 [22] = experiment: Induction of apoptosis in human MCF7 cells assessed as increase in caspase 3/7 activity at 0.01 to 1 uM measured after 18 hrs by Caspase-Glo reagent based luminescence analysis; type: functional, cell-based; details: dose 0.01-1 µM
MCF7 [23] = experiment: Induction of apoptosis in human MCF7 cells assessed as increase in caspase-7 cleavage at 1 uM measured after 6 hrs in presence of TNF-alpha by western blot analysis; type: functional, cell-based
[24] = target: Baculoviral IAP repeat-containing protein 2 (Homo sapiens) (UniProt Q13490); experiment: Induction of cIAP1 degradation in human MCF7 cells assessed as protein abundance at 1 uM measured after 4 hrs by TMT-labeling based LC-MS/MS analysis; type: cell-based
[25] = target: Baculoviral IAP repeat-containing protein 2 (Homo sapiens) (UniProt Q13490); experiment: Induction of cIAP1 degradation in human MCF7 cells at 0.1 uM measured within 1 hr by western blot analysis; type: cell-based
MDA-MB-157 [26] = experiment: Inhibition of TNFalpha-induced cell invasion in human MDA-MB-157 cells at 0.1 uM measured after 24 hrs in presence of TNFalpha by transwell assay; type: functional, cell-based
MCF7 [27] = experiment: Induction of apoptosis in human MCF7 cells assessed as increase in caspase 7 cleavage at 0.1 uM measured after 18 hrs by western blot analysis; type: functional, cell-based
[28] = target: E3 ubiquitin-protein ligase XIAP (Homo sapiens) (UniProt P98170); experiment: Induction of XIAP degradation in human MCF7 cells transfected with CRBN siRNA at 0.01 to 1 uM measured after 18 hrs by western blot analysis; type: cell-based; details: dose 0.01-1 µM
[29] = target: Baculoviral IAP repeat-containing protein 2 (Homo sapiens) (UniProt Q13490); experiment: Induction of cIAP1 degradation in human MCF7 cells at 1 uM measured after 18 hrs by western blot analysis; type: cell-based
[30] = target: T1, Protein cereblon/Baculoviral IAP repeat-containing protein 3 (Homo sapiens); experiment: Binding affinity to CRBN/cIAP2 in human HEK293T cells assessed as ternary complex formation at 1 uM measured after 6 hrs by immunoprecipitation analysis; type: cell-based
MDA-MB-231 [31] = experiment: Inhibition of TNFalpha-induced cell invasion in human MDA-MB-231 cells at 0.1 uM measured after 24 hrs in presence of TNFalpha by transwell assay; type: functional, cell-based
[32] = target: Baculoviral IAP repeat-containing protein 3 (Homo sapiens) (UniProt Q13489); experiment: Induction of […] degradation in human MCF7 cells transfected with CRBN siRNA at 0.01 to 1 uM measured after 18 hrs by western blot analysis; type: cell-based; details: dose 0.01-1 µM
[33] = target: T2, Protein cereblon/E3 ubiquitin-protein ligase XIAP (Homo sapiens); experiment: PROTAC activity at CRBN/XIAP in human MCF7 cells assessed as induction of XIAP degradation at 0.1 uM measured after 18 hrs by western blot analysis; type: cell-based

T1 sequence (Q13489 whole entry, looked up): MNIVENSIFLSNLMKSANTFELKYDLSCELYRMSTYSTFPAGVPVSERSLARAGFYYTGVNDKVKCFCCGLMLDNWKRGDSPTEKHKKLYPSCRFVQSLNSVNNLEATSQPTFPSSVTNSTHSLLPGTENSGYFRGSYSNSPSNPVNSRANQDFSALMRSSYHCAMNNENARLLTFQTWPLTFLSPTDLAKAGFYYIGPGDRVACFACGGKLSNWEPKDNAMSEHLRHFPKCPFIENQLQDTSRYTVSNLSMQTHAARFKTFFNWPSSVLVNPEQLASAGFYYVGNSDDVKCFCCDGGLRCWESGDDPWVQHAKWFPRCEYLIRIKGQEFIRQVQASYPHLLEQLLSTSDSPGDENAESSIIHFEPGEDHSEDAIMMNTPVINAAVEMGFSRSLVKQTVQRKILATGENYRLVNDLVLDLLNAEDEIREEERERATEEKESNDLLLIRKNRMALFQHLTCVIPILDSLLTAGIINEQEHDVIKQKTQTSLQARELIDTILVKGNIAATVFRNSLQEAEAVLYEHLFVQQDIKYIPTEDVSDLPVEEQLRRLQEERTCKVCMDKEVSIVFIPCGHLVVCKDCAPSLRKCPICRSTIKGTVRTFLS
T1 sequence (Q96SW2 whole entry, looked up): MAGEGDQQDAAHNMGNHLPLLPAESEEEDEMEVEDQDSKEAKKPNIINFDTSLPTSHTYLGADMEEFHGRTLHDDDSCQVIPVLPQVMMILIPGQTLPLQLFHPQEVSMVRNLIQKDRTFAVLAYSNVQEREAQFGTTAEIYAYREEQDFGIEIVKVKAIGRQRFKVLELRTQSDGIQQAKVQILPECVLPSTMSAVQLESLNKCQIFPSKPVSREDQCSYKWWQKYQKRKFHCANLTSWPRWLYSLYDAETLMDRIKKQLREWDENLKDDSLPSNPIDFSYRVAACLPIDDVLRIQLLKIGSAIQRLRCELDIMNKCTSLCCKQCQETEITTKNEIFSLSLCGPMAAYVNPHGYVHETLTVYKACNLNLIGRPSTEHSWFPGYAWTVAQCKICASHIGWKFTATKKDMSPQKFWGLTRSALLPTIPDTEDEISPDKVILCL
Sequence of Baculoviral IAP repeat-containing protein 2 (Homo sapiens) (Q13490 whole entry): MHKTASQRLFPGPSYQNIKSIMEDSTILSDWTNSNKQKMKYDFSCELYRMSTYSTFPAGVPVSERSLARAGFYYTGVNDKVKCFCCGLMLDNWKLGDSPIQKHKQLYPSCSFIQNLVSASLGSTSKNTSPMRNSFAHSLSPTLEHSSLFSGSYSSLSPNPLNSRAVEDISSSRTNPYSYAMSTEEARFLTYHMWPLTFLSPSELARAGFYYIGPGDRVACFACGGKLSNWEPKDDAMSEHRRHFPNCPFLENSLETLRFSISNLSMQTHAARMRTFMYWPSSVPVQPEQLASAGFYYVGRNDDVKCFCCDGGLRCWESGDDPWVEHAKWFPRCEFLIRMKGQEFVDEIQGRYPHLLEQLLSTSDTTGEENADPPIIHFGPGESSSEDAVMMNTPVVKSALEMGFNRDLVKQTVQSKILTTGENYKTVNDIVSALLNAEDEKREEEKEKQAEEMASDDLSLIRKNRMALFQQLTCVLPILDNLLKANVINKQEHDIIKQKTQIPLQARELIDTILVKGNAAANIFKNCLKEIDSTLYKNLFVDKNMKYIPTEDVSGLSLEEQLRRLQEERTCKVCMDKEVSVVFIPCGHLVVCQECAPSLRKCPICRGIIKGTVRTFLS
T2 sequence (P98170 whole entry, looked up): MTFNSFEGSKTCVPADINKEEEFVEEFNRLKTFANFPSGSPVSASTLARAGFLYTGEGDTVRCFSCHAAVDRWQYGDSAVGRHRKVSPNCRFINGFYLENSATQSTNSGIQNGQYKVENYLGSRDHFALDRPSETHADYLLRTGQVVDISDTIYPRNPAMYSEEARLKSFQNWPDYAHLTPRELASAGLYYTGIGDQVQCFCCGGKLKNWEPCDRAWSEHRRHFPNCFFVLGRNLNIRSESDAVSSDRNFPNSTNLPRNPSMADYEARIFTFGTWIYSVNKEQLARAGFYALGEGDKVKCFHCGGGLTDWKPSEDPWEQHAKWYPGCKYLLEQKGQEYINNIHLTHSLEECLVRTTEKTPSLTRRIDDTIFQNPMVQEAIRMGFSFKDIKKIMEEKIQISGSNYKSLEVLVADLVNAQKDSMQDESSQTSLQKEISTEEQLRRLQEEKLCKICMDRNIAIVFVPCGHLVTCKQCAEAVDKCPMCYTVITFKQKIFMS
T2 sequence (Q96SW2 whole entry, looked up): as the sequence (Q96SW2 whole entry, looked up) above
T3 sequence (P98170 whole entry, looked up): as the sequence (P98170 whole entry, looked up) above
T3 sequence (Q13489 whole entry, looked up): as the sequence (Q13489 whole entry, looked up) above
T3 sequence (Q13490 whole entry, looked up): as the sequence (Q13490 whole entry) above
T3 sequence (Q96SW2 whole entry, looked up): as the sequence (Q96SW2 whole entry, looked up) above
Sequence of Baculoviral IAP repeat-containing protein 3 (Homo sapiens) (Q13489 whole entry): as the sequence (Q13489 whole entry, looked up) above
Sequence of Protein cereblon/Baculoviral IAP repeat-containing protein 2 (Homo sapiens) (Q13490 whole entry, looked up): as the sequence (Q13490 whole entry) above
Sequence of Protein cereblon/Baculoviral IAP repeat-containing protein 2 (Homo sapiens) (Q96SW2 whole entry, looked up): as the sequence (Q96SW2 whole entry, looked up) above
Sequence of E3 ubiquitin-protein ligase XIAP (Homo sapiens) (P98170 whole entry): as the sequence (P98170 whole entry, looked up) above

For CN[C@@H](C)C(=O)N[C@H](C(=O)N1Cc2cc(OCCCCCCCCNC(=O)C3CN(c4ccc5c(c4)C(=O)N(C4CCC(=O)NC4=O)C5=O)C3)ccc2C[C@H]1C(=O)N[C@@H]1CCCc2ccccc21)C(C)(C)C (stereo partly drawn), the Activity [1] was 97%, the Activity [2] was “Active” and the Activity [3] was “Active”. For the same molecule, the Activity [4] was “inactive”, the Activity [5] was “inactive” and the Activity [6] was “Active”. The Activity (MCF7 [7]) was “Active”, the Activity [8] was greater than 90% and the Activity [9] was “Active”. For the same molecule, the Activity [10] was “Active”, the Activity (MCF7 [11]) was 46% and the inhibition (MDA-MB-231 [12]) was “Active”. For the same molecule, the inhibition (MCF7 [13]) was “Active”, the Activity [14] was greater than 90% and the Activity (MCF7 [15]) was “Active”. The inhibition (MDA-MB-157 [16]) was “Active”, the GI50 (MCF7 [17]) was 396 nM and the Activity [18] was “inactive”. The inhibition (MCF7 [19]) was “Active”, the Activity [20] was “Active” and the inhibition (MCF7 [21]) was “Active”. For the same molecule, the Activity (MCF7 [22]) was “Active”, the Activity (MCF7 [23]) was “Active” and the fold change (FC) [24] was greater than 2. The Activity [25] was greater than 90%, the inhibition (MDA-MB-157 [26]) was “Active” and the Activity (MCF7 [27]) was “Active”. The Activity [28] was “inactive”, the Activity [29] was 90% and the Activity [30] was “Active”. For the same molecule, the inhibition (MDA-MB-231 [31]) was “Active”, the Activity [32] was “inactive” and the Activity [33] was 99%.
